The structures appear in SMILES notation. Bounds are passed on as bounds.

The term melting point denotes the temperature, or range, at which the solid turns liquid. The compound `CC(C)c1cn2ccccc2c1S(=O)(=O)c1ccc(OCCCN2CCN(C(c3ccccc3)c3ccccc3)CC2)cc1` yielded a melting point of 170 °C. The value for `O=P1(O)Oc2c(-c3ccc(Cl)cc3)cc(Cl)cc2-c2ccc(Cl)cc21` was 260 °C. The figure for `COc1ccc(C2NCCc3c2[nH]c2ccccc32)cc1F` (stereo not given) is 68 °C; for `COc1cc(Nc2ncnc3cc(OCCCc4ccncc4)c(OC)cc23)c(OC)cc1Cl` it is 205 to 208 °C; for `CCc1cccc2c(C=O)cc(Cl)c(O)c12` it is 139 to 142 °C. Compound `CC(C)(C)c1ccc(C(=O)c2ccc3n2Cc2ccccc2N(C(=O)COc2ccc(Cl)cc2)C3)cc1` had a melting point of 171 °C. For the compound `CN1CCC(c2c[nH]c3ccc(C(=O)Cc4ccccc4)cc23)CC1`, the melting point is 69 °C. The figure for `COc1cc(OC)c2c(=O)[nH]c(-c3ccc(OCCO)c(-c4ccccc4S(C)(=O)=O)n3)nc2c1` is 92 to 93 °C; for `COc1ccc2c(c1)CCC(=Cc1ccc(OCCCN(C)C)cc1)C2=O` it is 68 to 71 °C.

Take `CSc1c(CC(=O)O)ccc2c3ccccc3n(Cc3ccc(F)cc3)c12`: the melting point was in the range of 156 to 157 °C. The value for `COC(=O)C1=C(C)NC(=O)N(C(=O)Oc2ccc([N+](=O)[O-])cc2)C1c1ccc(F)c(F)c1` (stereo not given) was 185 to 186 °C; that for `CCCC12CCC(=O)C=C1c1c(cc(OC)c(Cl)c1Cl)C2=O` (stereo not given) was 167 to 169 °C.

In the case of `CCCCc1nn(-c2cc(N)ccc2C(F)(F)F)c(=O)n1Cc1ccc(-c2ccccc2S(=O)(=O)NC(=O)OC(C)(C)C)cc1`, the melting point is 154 to 156 °C. The value for `CCCCc1nc2c(N)nc3ccccc3c2n1CCCCSc1ccccc1` was 118 to 120 °C; that for `O=C(NN1CCCCC1)NS(=O)(=O)C=Cc1ccccc1` was 175 to 177 °C; that for `COCc1cc(OCc2ccccc2)c2nc(C)n(C)c2c1` was 113 °C. The figure for `CCCCC(OC(C)=O)c1cccc(COc2cc([N+](=O)[O-])cc3cccnc23)c1` (stereo not given) is 72 to 74 °C; for `OC1CC=CCC1N1CCN(C2CC=CCC2O)CC1` (stereo not given) it is 207 to 209 °C. The figure for `COc1ccc(-c2n[nH]cc2C(=O)N2CCOCC2)cc1OC` is 122 °C. Turning to `CCCc1nc(Cl)nc(NCCO)n1`, the melting point fell in the range of 87 to 88 °C. The value for `Cc1nc(Cl)c(S(C)(=O)=O)c(Cl)n1` was 146 to 147 °C.

Consider `C=CCC(C#N)(c1ccc(F)cc1)c1ccccc1F` (stereo not given), for which the melting point was 215 to 219 °C. The value for `O=C1Cc2c(cccc2C(=O)O)Sc2ccc(F)cc21` was 242 to 244 °C. Consider `O=S(=O)(c1ncc(Cl)cn1)c1cccs1`, for which the melting point is 116 to 117 °C. The figure for `COc1cc(-c2ccc(N)nn2)ccc1OC(F)F` is 184 °C; for `CC1=C(C(=O)N(C)Cc2ccc(Cl)cc2)SC2=NC(C)(C)CN21` it is 139 °C; for `Cc1cc(=O)oc2nn(Cc3ccc(Cl)cc3)c(C)c12` it is 149 to 152 °C.

`CN1Cc2c(C(N)=O)ncn2-c2cccc(Br)c2C1=O` gave a melting point of 278 to 279 °C.

`CN1C(=O)Cc2cc(Cl)ccc21` registered a melting point of 118 to 119 °C.

The compound `CCn1c(=O)n(-c2ccc(-n3ccn4c5ccccc5nc34)cc2)c2ncccc21` registered a melting point of 220 to 221 °C. The value for `CCCCN1CC(=O)N(c2cc(Cl)ccc2C)C1=S` was 102 to 103 °C. The value for `CCN(C(=O)Cc1c(F)cccc1F)C(c1cnccc1C(F)(F)F)C(C)C` (stereo not given) was 122 °C. On to `CCc1cc(C(=O)c2ccccc2Cl)c(-n2c(CNC(=O)c3cc4ccccc4n3CC(=O)O)nnc2C2CCCCC2)s1`, for which the melting point was 159 to 162 °C. The value for `CCOc1ccc(C2CCC3c4ccc(OCC)c(F)c4OC3C2)c(F)c1F` (stereo not given) was 126 °C; that for `COc1cc(Cc2cnc(N)nc2N)c2c(c1OC)OC(C)CC2=O` (stereo not given) was 128 to 132 °C. The value for `CCCCCCCCCCc1ccc2cc(OC)ccc2c1` was 48.6 to 49.3 °C; that for `Nc1ccccc1C(=O)NCCCN1CCC(C(=O)c2ccc(F)cc2)CC1` was 113 °C. The figure for `COc1cc(C)c(C=CC(C)=CC=CC(C)=CC(=O)O)c(C)c1` is 207 to 208 °C; for `Clc1cc(Cl)c2cccc3c2c1N=C3NCCCCn1ccnc1` it is 187 to 188 °C; for `NS(=O)(=O)c1ccc(C2CCNCC2)cc1` it is 229 to 230 °C. `CC(C)(C)c1cc(CC(S)C(=O)O)cc(C(C)(C)C)c1O` (stereo not given): the melting point fell in the range of 137 to 140 °C. Compound `CCN(CC)c1ccc(NC(C)=O)c(C)c1` showed a melting point of 114 to 115 °C. The figure for `CCCn1c(COCC)nc2c(N)nc3ccc(OC4CCNCC4)cc3c21` is 176 to 178 °C. The value for `O=c1ccn(-c2cccc(C(F)(F)F)c2)nc1-c1conc1-c1ccccc1` was 217 to 219 °C; that for `COc1ccc(C2=NN(C3CCN(S(=O)(=O)c4ccc(Cl)cc4)CC3)C(=O)CC2)cc1OC` was 185 to 186 °C; that for `CCOC(=O)CCCn1nc(-c2c(-c3ccccc3)nn3ccccc23)ccc1=O` was 71 to 75 °C. The figure for `COc1cccc([C@H]2O[C@H](CC(=O)Nc3cc(Cl)cc4cc(C(=O)O)oc34)C(=O)N(CC(C)(C)CO)c3ccc(Cl)cc32)c1OC` is 179 to 180 °C; for `COc1c(C)c(C)c(OC)c(CN2C(=O)[C@H]3CCC[C@H]3Nc3ccccc32)c1C` (relative stereo) it is 175 to 176 °C; for `O=c1c(CCc2cccs2)cc2cccnc2n1-c1cccc([N+](=O)[O-])c1` it is 175 to 176 °C. `CCSc1cccc(OC(F)(F)F)c1S(=O)(=O)NC(C)(C)C` returned a melting point of 77 °C.

Take `CC(=O)NCCCCCCOc1ccccc1C(=O)Nc1ccc(C(=O)N2CCCCc3ccccc32)cc1`: the melting point lay within 171 to 172 °C. The value for `Clc1ccc2ccc(COc3cccc(CN4CCc5cccc(CCc6nnn[nH]6)c54)c3)nc2c1` was 137 to 140 °C. In the case of `CN1CCC(=C2c3cc(CO)n(C)c3CCn3ccnc32)CC1`, the melting point was found to be 214 °C. `Cc1oc(-c2ccccc2)nc1COc1cccc(CCCC2SC(=O)NC2=O)c1` (stereo not given) registered a melting point of 123 to 124 °C. The figure for `COCC(Oc1ccc(Nc2ccc(C(F)(F)F)cc2[N+](=O)[O-])cc1)C(=O)OC` (stereo not given) is 57 °C. The figure for `CCCCn1c(=O)c2cn(S(=O)(=O)c3ccc(OC(F)(F)F)cc3)nc2n(CCCC)c1=O` is 135 to 137 °C; for `O=C(NC(=O)c1c(F)cccc1Cl)Nc1cnc(Oc2ccc(Cl)c3c2CCCC3)c(Cl)c1` it is 244 °C; for `O=C1NCC=Cc2cc[nH]c21` it is 155 to 160 °C.

Take `CCC(=O)Nc1ccc(C2=NNC(=O)C3CC23)cc1` (stereo not given): the melting point was in the range of 268 to 270 °C. The value for `CCn1ncnc1COc1nc2c(-c3ccccc3)nnc(C)n2c1C1CCCC1` was 94 to 96 °C.

The compound `O=C(O)c1ccc(NCc2cccc([N+](=O)[O-])c2)cc1O` gave a melting point of 189 °C. The compound `CS(=O)(=O)c1ccc2[nH]c(=O)c(C#N)cc2c1` showed a melting point above 310 °C. The figure for `CCCc1nc2c(N)nc3cc(OCC(=O)N4CCOCC4)ccc3c2s1` is 200 to 203 °C; for `CON(C)Cc1nc2c(N)nc3cc(OCc4ccccc4)ccc3c2n1CC1CCOCC1` it is 159 to 161 °C; for `COc1ccc(S(=O)(=O)C(C)(Cc2ccccc2Br)C(=O)O)cc1` (stereo not given) it is 93 to 96 °C. The figure for `COC(=O)c1c(OCc2ccccc2)ccc2c1CC[C@@H](N)[C@@H]2O` (relative stereo) is 124 to 126 °C. Consider `CCCc1nc(C(C)(C)O)c(C(=O)OCOC(=O)OC(C)C)[nH]1`, for which the melting point is 144 to 146 °C. The value for `O=c1ccoc2cc(OCCCCl)ccc12` was 72 to 73 °C; that for `O=C(Nc1ccc(C(F)(F)F)cc1)Nc1ccc2c(c1)OC(F)(F)O2` was 195 to 200 °C; that for `CCCCOC(=O)N(C)C(CNC(=O)CC1CC(c2ccc(C#N)cc2)=NO1)C(=O)O` (stereo not given) was 154 to 156 °C.

`COCOc1ccc(-n2c(=O)c3c(CN(C)Cc4ccccc4)c(-c4ccc(NC(=O)NOC)cc4)sc3n(Cc3c(F)cccc3F)c2=O)cc1` returned a melting point of 189 to 191 °C. The value for `COc1cccc(C(=O)Nc2ccc(N3CCN(Cc4cccc(C#N)c4)CC3)cc2)c1-c1ccc(C(C)C)cc1` was 179 °C; that for `COc1cc(OC)c2cc(-c3ccc(F)cc3)oc2c1` was 142 to 143 °C. `CC(O)c1ccc(-c2ccc3c(c2)CC(C(=O)O)O3)cc1` (stereo not given) came in with a melting point of 155 to 157 °C. The figure for `O=[N+]([O-])C(CN(Cc1ccccc1)Cc1ccccc1)=C1NCCCS1` is 108 to 110 °C. The figure for `Cc1ccc([N+](=O)[O-])c(O)c1CCC(C)Br` (stereo not given) is 67 to 69 °C; for `CC(C)c1cc(Sc2cc(C(C)C)c(O)c(C(C)C)c2)cc(C(C)C)c1O` it is 93.5 to 94.2 °C. `Cc1ccc(Br)c(C)c1C#N` yielded a melting point of 60 °C. `CC(=S)NCC1CC(c2ccc(-n3cccc3)c(F)c2)=NO1` (single isomer, unassigned; (-)) showed a melting point of 152 to 153 °C. The value for `Cc1c(O)nc2sc(SCc3ccccc3)nn2c1=O` was 247 to 250 °C; that for `CC(C)(O)Cc1c2c(nn1CCO)c(N)nc1ccccc12` was 196 to 198 °C; that for `Cc1cccc(-c2nc3cccnn3c2-c2ccnc(NC(=O)N3CCc4ccccc4C3)c2)c1` was 122 to 124 °C.

In turn, `Cn1cc(-c2ccc3ncn(Cc4ccc5ncccc5c4)c3n2)cn1` returned a melting point of 150 to 152 °C. The value for `O=C1C(Cc2ccccc2)N(c2ccc(Oc3ccccc3)cc2)C(=S)N1c1ccccc1` (stereo not given) was 130 °C; that for `CNC(=O)CCc1cn(Cc2ccc(C(=O)NS(=O)(=O)c3ccccc3C)cc2OC)c2cc(C(=O)NCC3CCCC3)ccc12` was 211 to 212 °C.

Values taken from a melting point compilation (Tetko et al.; mined from patent text by program, amines drawn as free bases though some values may be those of a salt).
